The record followed here is patent publication US20250304568A1, “PYRIMIDINES FOR DEGRADING BRUTON'S TYROSINE KINASE” (AbbVie Inc., priority 2022, published 2025).

For test [1], the target named is His-tagged Cereblon/DDB1 complex (Homo sapiens (Human), UniProt Q96SW2). The test can be described thus: Cereblon binding assay (AlphaLISA Human Cereblon Binding Kit, competition). The following applies: 10 μM top dose, biotinylated ligand competition; read-out: CRBN IC50. The method, then:
Cereblon binding was measured in vitro using an AlphaLISA® Human Cereblon Binding Kit (PerkinElmer, Waltham, MA) according to the manufacturer's protocol (“Alpha” refers to Amplified Luminescent Proximity Homogeneous Assay). In this assay, donor beads and acceptor beads come into proximity through ligand binding to CRBN protein. Excitation of the donor beads provokes the release of singlet oxygen that triggers a cascade of energy transfer reactions to the acceptor beads, resulting in a sharp peak in light emission at 615 nm.
Specifically, nickel chelate acceptor beads (PerkinElmer AL108M) were used to capture a 6×HIS-tagged CRBN protein, and streptavidin-coated donor beads (PerkinElmer 6760002) were used to capture 50 nM biotinylated ligand. […]
Detection: 10 μL detection reagents were added in low light conditions containing nickel chelate acceptor beads and streptavidin donor beads (Perkin Elmer 6760002), resulting in a final concentration 20 μg/ml. Plates were incubated 1 hour and read on a PerkinElmer™ Envision™ plate reader (680 nm excitation and […] emission settings). The IC50 of each compound was determined by calculating percent inhibition from no drug and no protein controls, and the Ki of each compound was calculated using the Cheng-Prusoff transformation. From the Ki, the ICs50 values were determined. […]
For orientation: Bead proximity is the source of the signal in Alpha formats.

Test [2] deals with Human BTK enzyme, wild-type (Homo sapiens (Human), UniProt Q06187). The test can be described thus: BTK screening: Btk kinase activity, electrophoretic mobility shift assay (MSA). Type of test: biochemical. The conditions noted are these: 50 μM ATP, 0.5 nM BTK enzyme, 15 minutes pre-incubation. The method, then:
Btk kinase activity was measured in vitro using an electrophoretic mobility shift assay (MSA). The ability of Btk to phosphorylate a fluorescent peptide substrate (FAM-GEEPLYWSFPAKKK-NH2) was measured. The kinase reactions were assembled in a total volume of 25 μL per well in 384 well plates. The following was added to each well: compound buffer (or control); enzyme buffer; and substrate buffer, as further described below. […]
The terminated reactions were analyzed using a 12 channel LABCHIP® 3000 microfluidic detection instrument (available from Caliper Life Sciences, Waltham, MA). […] As substrate and product peptides were separated, two peaks of fluorescence were observed. Change in the relative fluorescence intensity of the substrate and product peaks was the parameter measured, reflecting enzyme activity. […] Capillary electrophoregrams (RDA acquisition files) were analyzed using HTS Well Analyzer software (available from Caliper Life Sciences, Waltham, MA).
Activity in each sample was determined as the product to sum ratio (PSR): P/(S+P), where P was the peak height of the product peptide and S was the peak height of the substrate peptide. For each compound, enzyme activity was measured at various concentrations (12 concentrations of compound spaced by 3× dilution intervals). […]

For test [3], the system named is TCL1-driven CLL bearing BTK^C481S mutation. Put plainly: TCL1-driven CLL bearing BTK^C481S mutation in C57BL/6 mice, circulating leukemia burden. Type of test: in vivo. The source says:
Eμ-TCL1 CLL transgenic mice (Crogen Pharmaceuticals LLC) were crossed with […] knock-in mice (AbbVie) to generate Eμ-TCL1 transgenic mice carrying the […] mutation. The leukemic splenocytes from these BTK^C481S Eμ-TCL1 transgenic mice (Passage 1) were transplanted intravenously into C57BL/6 mice, leading to CLL development in the peripheral blood and spleen. When circulating CLL burden (CD5+CD19+ cells as described below) in the recipient mice reached over 90%, their splenocytes (Passage 2) containing high CLL burden were cryopreserved and used for CLL efficacy studies. […]
To determine the absolute/total leukocyte numbers, complete blood counts were determined for each mouse using the Genesis™ veterinary hematology analyzer (Oxford Science Inc.).
Cells isolated from murine peripheral blood mononuclear cells (PMBCs) were collected to determine antigen expression. […] Cells were gated on CD45+, and thereafter the percentage of cells that were CD5+CD19+ from that subset was calculated. […]
Whole blood was collected weekly post tumor implantation via submandibular cheek bleeding. Circulating leukemic burden was calculated by multiplying absolute/total leukocyte count with the percentage of the leukocytes have the immunophenotype CD19^+CD5^+. […]

Usually IC50 stands for the concentration at which inhibition is half-maximal. Take `Cc1c([C@@H](C)NC(=O)c2nc(C(C)(C)C)no2)ccc(-c2cc(Nc3ccc(N4CCN(CCc5ccc(N6CCC(=O)NC6=O)cc5)CC4)cn3)ncn2)c1F` [Example 11, 3-tert-butyl-N-{(1R)-1-[4-(6-{[5-(4-{2-[4-(2,4-dioxo-1,3-diazinan-1-yl)phenyl]ethyl}piperazin-1-yl)pyridin-2-yl]amino}pyrimidin-4-yl)-3-fluoro-2-methylphenyl]ethyl}-1,2,4-oxadiazole-5-carboxamide]: the IC50 was found to be 2150 nM in test [1] and 0.0973 nM in test [2].
On to `Cc1cc(-c2cc(Nc3ccc(N4CCN(CCc5ccc(N6CCC(=O)NC6=O)cc5)C[C@@H]4C)cn3)ncn2)ccc1[C@@H](C)NC(=O)c1nc(C(C)(C)C)no1` [Example 1, 3-tert-butyl-N-[(1R)-1-{4-[6-({5-[(2S)-4-{2-[4-(2,4-dioxo-1,3-diazinan-1-yl)phenyl]ethyl}-2-methylpiperazin-1-yl]pyridin-2-yl}amino)pyrimidin-4-yl]-2-methylphenyl}ethyl]-1,2,4-oxadiazole-5-carboxamide], for which, in test [3] (Dosage 3 and Dosage 4, once daily (QD) for 19 days), the “CLL burden control (no increase from the initial tumor burden)” value is reported as “Complete CLL burden control”. The “circulating leukemia burden (CD19+CD5+ CLL cells per μL)” value in test [3] (once daily (QD) for 19 days, Dosage 1 to 4, dose-dependent manner, FIG. 1) was “controlled circulating leukemia burden”.
Turning to `Cc1c([C@@H](C)NC(=O)c2nc(C(C)(C)C)no2)ccc(-c2cc(Nc3ccc(N4CCN(CCc5ccc(N6CCC(=O)NC6=O)cc5)C[C@@H]4C)cn3)ncn2)c1F` [Example 10, 3-tert-butyl-N-[(1R)-1-{4-[6-({5-[(2S)-4-{2-[4-(2,4-dioxo-1,3-diazinan-1-yl)phenyl]ethyl}-2-methylpiperazin-1-yl]pyridin-2-yl}amino)pyrimidin-4-yl]-3-fluoro-2-methylphenyl}ethyl]-1,2,4-oxadiazole-5-carboxamide], the IC50 in test [1] worked out at 6310 nM; in test [2], 0.106 nM.
